According to patent publication US7674816B2, “Substituted melatonin derivatives, process for their preparation, and methods of use” (Abraxis BioScience, LLC, priority 2003, dated 2010):

How the values were obtained:
[1] = tested on: GABAA α-6 site; experiment: GABAA alpha 6 site competitive binding (3H-Ro 15-4513); conditions: Conc. 1.0E−3 M, bovine hippocampus
[2] = tested on: GABAA α-1 site; experiment: GABAA alpha 1 site competitive binding (3H-flunitrazepam); conditions: Conc. 1.0E−3 M, bovine hippocampus
[3] = biological target: T1, GABAA α-5 site (Bos taurus, UniProt P22300+Q08E50); experiment: GABAA alpha 5 site competitive binding (3H-RY80); conditions: bovine hippocampus
T1 construct: Frozen bovine hippocampus was thawed and homogenized in 40 volumes of ice-cold 0.32 M sucrose; from tissue; host or cells: bovine hippocampus membranes (washed pellet)
T1 sequence (Q08E50 32-462): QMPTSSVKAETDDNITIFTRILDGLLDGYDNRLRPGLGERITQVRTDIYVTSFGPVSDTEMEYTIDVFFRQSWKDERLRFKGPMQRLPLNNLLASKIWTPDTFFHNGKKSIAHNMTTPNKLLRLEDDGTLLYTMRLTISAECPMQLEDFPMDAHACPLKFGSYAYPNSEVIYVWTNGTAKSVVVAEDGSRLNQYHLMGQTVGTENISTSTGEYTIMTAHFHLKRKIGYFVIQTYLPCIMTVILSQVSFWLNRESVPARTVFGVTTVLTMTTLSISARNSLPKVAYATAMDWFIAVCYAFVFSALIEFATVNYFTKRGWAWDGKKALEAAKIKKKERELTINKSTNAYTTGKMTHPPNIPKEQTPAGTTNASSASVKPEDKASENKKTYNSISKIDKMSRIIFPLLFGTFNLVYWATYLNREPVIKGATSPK
T1 sequence (P22300 40-475): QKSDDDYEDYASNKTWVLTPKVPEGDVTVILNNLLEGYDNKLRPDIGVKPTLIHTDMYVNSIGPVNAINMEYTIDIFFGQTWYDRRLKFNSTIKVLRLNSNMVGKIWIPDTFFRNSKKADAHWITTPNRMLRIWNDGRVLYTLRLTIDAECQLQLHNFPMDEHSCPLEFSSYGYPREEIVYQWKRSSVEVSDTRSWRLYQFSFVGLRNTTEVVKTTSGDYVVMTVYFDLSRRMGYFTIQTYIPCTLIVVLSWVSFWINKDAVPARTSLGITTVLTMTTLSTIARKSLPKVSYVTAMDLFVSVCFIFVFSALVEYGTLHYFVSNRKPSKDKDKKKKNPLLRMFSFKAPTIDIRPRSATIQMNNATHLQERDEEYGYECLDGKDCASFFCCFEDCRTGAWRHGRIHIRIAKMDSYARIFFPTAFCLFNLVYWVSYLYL
Method: Frozen bovine hippocampus was thawed and homogenized in 40 volumes of ice-cold 0.32 M sucrose. The suspension was centrifuged at 1000×g for 10 minutes at 4° C. […] The amount of radioactivity remained on the Whatman filter following filtration of the reaction mix and two washes with assay buffer was determined using a liquid scintillation counter. Inhibition of radioactive ligand binding by melatonin represents the competitive binding of melatonin to the same site as the radioactive ligand.

[4] = tested on: GABAA agonist site; experiment: GABAA agonist site competitive binding (3H-GABA); conditions: Conc. 1.0E−3 M, bovine hippocampus
Text: (§1) The binding profile of exemplary inventive compounds to neurotransmitter receptor sites is set forth below in Table 1. The characterization of the receptors, isolation of the membrane, and enzyme assay have been described in detail previously (see, e.g., Cole et al., Life Sci., 35, 1755 (1984), Lawrence et al., J. Neurochem., 45(3), 798 (1985), Sweetnam et al., Mol. Pharmacology, 29, 299 (1986), Zarkovsky et al., Neuropharmacology, 26 (7A), 737 (1987), Li et al., Eur. J. Pharmacology, 413, 63 (2001), and Markela et al., Mol. Pharmacology, 52, 380 (1997)).
(§2) The melatonin binding site on GABAA was defined using a series of competitive binding assays. Frozen bovine hippocampus was thawed and homogenized in 40 volumes of ice-cold 0.32 M sucrose. The suspension was centrifuged at 1000×g for 10 minutes at 4° C. The pellet was washed twice in assay buffer and reacted with radioactive ligand in presence or absence of melatonin at 10^−4 M final concentration. The amount of radioactivity remained on the Whatman filter following filtration of the reaction mix and two washes with assay buffer was determined using a liquid scintillation counter. Inhibition of radioactive ligand binding by melatonin represents the competitive binding of melatonin to the same site as the radioactive ligand. GABAA agonist site, GABAA α-1 site, GABAA α-5 site, GABAA α-6 site, and GABAA Cl channel were assayed using ^3H-GABA, ^3H-flunitrazepam, ^3H-RY80, ^3H-Ro 15-4513, and ^3H-TBOB.

[5] = tested on: GABAA Cl channel; experiment: GABAA Cl channel, TBOB site competitive binding (3H-TBOB), single concentration; conditions: Conc. 1.0E−3 M, bovine hippocampus
[6] = tested on: GABAA Cl channel; experiment: as above; conditions: Conc. 1.0E−4 M, bovine hippocampus
Text: as §1, §2

[7] = tested on: GABAA α-1 site; experiment: GABAA alpha 1 site competitive binding (3H-flunitrazepam); conditions: Conc. 1.0E−4 M, bovine hippocampus
Text: as §1, §2

[8] = tested on: GABAA α-6 site; experiment: GABAA alpha 6 site competitive binding (3H-Ro 15-4513); conditions: Conc. 1.0E−4 M, bovine hippocampus
Text: as §1, §2

SMILES | Specific binding, GABAA Alpha 6 site (inhibition of radioactive ligand binding) [1] [%] | Specific binding, GABAA Alpha 1 site (inhibition of radioactive ligand binding) [2] [%] | Specific binding, GABAA Alpha 5 site (inhibition of radioactive ligand binding) ([3]; Conc. 1.0E−3 M) [%] | Specific binding, GABAA Agonist site (inhibition of radioactive ligand binding) [4] [%] | Specific binding, GABAA Ion Channels Cl−, TBOB site (inhibition of radioactive ligand binding) [5] [%] | Specific binding, GABAA Ion Channels Cl−, TBOB site (inhibition of radioactive ligand binding) [6] [%] | Specific binding, GABAA Alpha 1 site (inhibition of radioactive ligand binding) [7] [%] | Specific binding, GABAA Alpha 5 site (inhibition of radioactive ligand binding) ([3]; Conc. 1.0E−4 M) [%] | Specific binding, GABAA Alpha 6 site (inhibition of radioactive ligand binding) [8] [%]
COc1cc2c(CCNC(C)=O)c[nH]c2cc1Cl [6-Chloromelatonin] | −7.74 | 12.49 | 13.95 | −13.74 | 43.63 |  |  |  | 
COc1ccc(-c2[nH]c3ccc(OC)cc3c2CCNC(C)=O)cc1 |  |  |  |  |  | 108.82 | −8.16 | 7.09 | 6.68
